One test concerns the target T1, AstC-R (Aplysia californica, UniProt A0ABM0JJJ7).
T1 sequence (A0ABM0JJJ7 1-425): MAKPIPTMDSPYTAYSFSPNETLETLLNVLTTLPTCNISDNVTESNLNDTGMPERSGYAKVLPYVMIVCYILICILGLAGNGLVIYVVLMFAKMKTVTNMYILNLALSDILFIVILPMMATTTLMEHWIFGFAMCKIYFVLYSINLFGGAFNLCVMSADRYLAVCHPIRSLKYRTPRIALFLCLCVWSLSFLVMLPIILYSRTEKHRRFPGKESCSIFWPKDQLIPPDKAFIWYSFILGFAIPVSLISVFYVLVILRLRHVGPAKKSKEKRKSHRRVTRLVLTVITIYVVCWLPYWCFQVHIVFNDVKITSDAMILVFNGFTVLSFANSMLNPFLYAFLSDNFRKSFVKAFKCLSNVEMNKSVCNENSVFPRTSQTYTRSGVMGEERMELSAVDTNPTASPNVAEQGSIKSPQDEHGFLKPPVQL
Nature of the test: IP1 accumulation assay, CHO-K1 cells expressing putative receptor AstC-R. The test is classed as cell-based. As to conditions: for EC50: IP1 accumulation, CHO cells co-transfected with AstC-R and Gα16 plasmids, peptide 10^–12 M to 10^–4 M; for Screening: IP1 concentration on AstC-R at 10^–5 M vs 10^–10 M: CHO cells co-transfected with AstC-R and Gα16, 10^–10 M used as control, paired t-test, n = 6 (AstC' n = 5; AstCG-DP, SPTR n = 3); for IP1 response of AstC-R, preliminary experiments: CHO cells transfected with receptor plasmid only, without Gα16. The source says: Because Gα16 is a promiscuous Gαq protein that will bind to most GPCRs[10],[53], this procedure would ensure an IP1 response when a potential ligand binds to its GPCR.
Inositol monophosphate 1 (IP1) accumulation assay measures concentration of IP1, that is hydrolyzed from the second messenger, […] (IP3), generated by Gαq pathway when a G-protein coupled receptor (GPCR) expressed in CHO-K1 cells is activated by an appropriate ligand. In order to express the Aplysia putative receptors transiently in CHO-K1, the cDNA was cloned into the mammalian expression vector pcDNA3.1( +). […] Transfection experiments were performed when the cells were grown to 70–90% confluence. In preliminary experiments, for each dish (60-mm diameter), 4 μg of the putative receptor plasmids [in pcDNA3.1( +)] were mixed with 400 μl of Opti-MEM (Gibco, 11058021), followed by the addition of 15 μl of Turbofect (Thermo Fisher Scientific, R0531). […] The CHO cells with the reagents added above were mixed gently, and incubated at room temperature for 15 min. The DNA/Turbofect mixture dropwise was then added to the dish, and the cells were incubated at 37 °C in 5% CO2 overnight. The next day, the cells were trypsinized and reseeded in opaque white 96-well half-area (Corning, 3688) or 384-well tissue culture-treated plates (Corning, 3570) at a density of 20,000 cells/well in F-12K and 10% FBS and incubated at 37 °C in 5% CO2 overnight. On the third day, the activation of the putative receptor was detected by monitoring IP1 accumulation using IP1 detection kit (Cisbio, 62IPAPEB) in Tecan Spark. Except for using 0.5 × reagent, all other procedures were performed in accordance with the IP1 detection kit manufacturer’s instructions. Peptides are synthesized by Sangon Biotech, Guoping Pharmaceutical or ChinaPeptides (Supplementary Fig. 4), and are aliquoted in 50 nmol EP tubes, stored at −20 °C until use.

Another test has as its system Class-A_GPCR1. Nature of the test: IP1 accumulation assay, CHO-K1 cells expressing putative receptor Class-A_GPCR1 (control). The test is classed as cell-based, Aplysia californica. The conditions noted are these: CHO cells transfected with receptor plasmid only, without Gα16. An excerpt: We cloned AstC-R and Class-A_GPCR1 into pcDNA3.1 plasmids, and expressed them in CHO cells. We then used the IP1 accumulation assay that detects IP1 generated in the Gαq pathway (see Methods) to determine whether our predicted Aplysia peptides (i.e., AstC or AstCG-DP) and other related peptides which we synthesized (see Fig. 7G) could activate the receptors. In preliminary experiments, we only transfected plasmids for a putative receptor in CHO cells. […] Thus, for all the experiments shown in Fig. 7, we co-transfected plasmids for the putative receptor and Gα16 plasmids in CHO cells. Because Gα16 is a promiscuous Gαq protein that will bind to most GPCRs[10],[53], this procedure would ensure an IP1 response when a potential ligand binds to its GPCR.
Inositol monophosphate 1 (IP1) accumulation assay measures concentration of IP1, that is hydrolyzed from the second messenger, […] (IP3), generated by Gαq pathway when a G-protein coupled receptor (GPCR) expressed in CHO-K1 cells is activated by an appropriate ligand. In order to express the Aplysia putative receptors transiently in CHO-K1, the cDNA was cloned into the mammalian expression vector pcDNA3.1( +). […] On the third day, the activation of the putative receptor was detected by monitoring IP1 accumulation using IP1 detection kit (Cisbio, 62IPAPEB) in Tecan Spark. […]

The target of another test is Platynereis receptor. As to conditions: annelid Platynereis dumerilii allatostatin C on its putative receptor; cited from earlier work. An excerpt:
Growing databases of the Aplysia genome and transcriptome are becoming available, but relatively few studies have taken advantage of this information (see[53],[54]). […] Previous bioinformatic studies in several molluscs predicted the presence of an allatostatin C precursor (Fig. 3, e.g.,[57]) and of AstC with the ...

The mark [1] stands for this setting: average EC50, n = 3, read-out: [EC50] on AstC-R.
[2] abbreviates: average log[EC50], n = 3, read-out: log[EC50] on AstC-R (converted).

Where “and” joins values, the source holds several entries; their conditions need not be identical. Equal values may be shown once. Read-outs that look alike come from different tables or passages of the source. Where a SMILES comes first, the peptide text is derived from it. Bridges are numbered along the chain shown (N, C = ends).

In the case of `CC[C@H](C)[C@H](NC(=O)[C@H](Cc1c[nH]cn1)NC(=O)[C@@H](N)CO)C(=O)N[C@@H](CCCNC(=N)N)C(=O)N[C@H]1CSSC[C@@H](C(=O)N[C@@H](Cc2ccc(O)cc2)C(=O)O)NC(=O)[C@H](C)NC(=O)[C@H]([C@@H](C)CC)NC(=O)[C@H](C(C)C)NC(=O)[C@H](CC(N)=O)NC(=O)[C@H](C(C)C)NC(=O)[C@H](CC(C)C)NC1=O` [AstC-C] (H-SHIRCLVNVIACY-OH; disulfide 5-12), the EC50 on AstC-R (setting [1]) was 0.111 µM.
As for `CSCC[C@H](NC(=O)[C@H](CO)NC(=O)[C@H](CO)NC(=O)[C@H](Cc1ccc(O)cc1)NC(=O)[C@@H](N)[C@@H](C)O)C(=O)N[C@H]1CSSC[C@@H](C(=O)N[C@@H](Cc2ccc(O)cc2)C(=O)O)NC(=O)[C@H](C)NC(=O)[C@H](C(C)C)NC(=O)[C@H](C(C)C)NC(=O)[C@H](CC(N)=O)NC(=O)[C@H](Cc2ccccc2)NC(=O)[C@H](CCSC)NC1=O` [AstC-D] (H-TYSSMCMFNVVACY-OH; disulfide 6-13), the EC50 on AstC-R (setting [1]) is 0.0189 µM; at AstC-R (setting [2]), 0.0158 µM.
For `CC[C@H](C)[C@@H]1NC(=O)[C@H](CC(C)C)NC(=O)[C@H](CC(N)=O)NC(=O)[C@H](C(C)C)NC(=O)[C@H](CC(C)C)NC(=O)[C@@H](NC(=O)[C@H](CCSC)NC(=O)[C@@H](NC(=O)[C@H](Cc2c[nH]cn2)NC(=O)[C@@H](N)CO)C(C)C)CSSC[C@@H](C(=O)N[C@@H](Cc2ccccc2)C(=O)O)NC(=O)[C@H](CO)NC1=O` [AstC-L] (H-SHVMCLVNLISCF-OH; disulfide 5-12), in that order: 0.111 µM and 0.0631 µM.
Turning to `CSCC[C@H](NC(=O)[C@H](CO)NC(=O)[C@H](CC(N)=O)NC(=O)[C@H](Cc1ccc(O)cc1)NC(=O)[C@H](Cc1c[nH]cn1)NC(=O)[C@@H](N)CO)C(=O)N[C@H]1CSSC[C@@H](C(=O)N[C@@H](Cc2ccc(O)cc2)C(=O)O)NC(=O)[C@H](C)NC(=O)[C@H](C(C)C)NC(=O)[C@H](C(C)C)NC(=O)[C@H](CC(N)=O)NC(=O)[C@H](Cc2ccccc2)NC(=O)[C@H](CCSC)NC1=O` [AstC-T] (H-SHYNSMCMFNVVACY-OH; disulfide 7-14), on AstC-R (setting [1]), the concentration giving a half-maximal response (EC50) came to 0.0177 µM.
Consider `CSCC[C@H](NC(=O)[C@H](CO)NC(=O)[C@H](CO)NC(=O)[C@H](Cc1ccc(O)cc1)NC(=O)[C@H](Cc1c[nH]cn1)NC(=O)[C@@H](N)CO)C(=O)N[C@H]1CSSC[C@@H](C(=O)N[C@@H](Cc2ccc(O)cc2)C(=O)O)NC(=O)[C@H](C)NC(=O)[C@H](C(C)C)NC(=O)[C@H](C(C)C)NC(=O)[C@H](CC(N)=O)NC(=O)[C@H](Cc2ccccc2)NC(=O)[C@H](CCSC)NC1=O` [AstC] (H-SHYSSMCMFNVVACY-OH; disulfide 7-14; N-terminus assumed), for which, on AstC-R, the “Screening: IP1 concentration on AstC-R at 10^–5 M vs 10^–10 M” value (“Screening: IP1 concentration … vs 10^–10 M” below) was “significantly increased IP1 concentration” and the “IP1 response of AstC-R, preliminary experiments” value is recorded as “none of the receptors responded”. For the same molecule, the EC50 at AstC-R (setting [1]) came to 0.0078 µM. Also, the EC50 at AstC-R (setting [2]) is 0.00631 µM. The “IP1 response of Class-A_GPCR1, preliminary experiments” value in the test with Class-A_GPCR1 was “none of the receptors responded”.
Regarding “AVIPVSSPEPMEEASALQLLPGKI-NH2 [AstCG-DP, AstC gene-derived peptide predicted from the Aplysia AstC precursor, C-terminally amidated]”, on AstC-R, the “Screening: IP1 concentration … vs 10^–10 M” value is on record as “did not activate AstC-R significantly” and the “IP1 response of AstC-R, preliminary experiments” value was “none of the receptors responded”. For the same molecule, the “IP1 response of Class-A_GPCR1, preliminary experiments” value in the test with Class-A_GPCR1 is recorded as “none of the receptors responded”.
Turning to “MRYMG1CMKKQYNNF1PFPCLRS-NH2 (disulfide) [SPTR, another Aplysia peptide also with a disulfide bridge, reference compound]”, at AstC-R, the “Screening: IP1 concentration … vs 10^–10 M” value is listed as “did not activate AstC-R significantly”.
With “pQPVQCLVNIVSCWamide (disulfide) [allatostatin C]”, on Platynereis receptor, the EC50 is 1 µM and 1.2 µM.

Usually EC50 stands for the concentration needed to bring the measured effect to its halfway point.
